Like-named read-outs stand apart in the source and are kept apart here.
Tests used:
[1] = test system: PICM-19H cells
[2] = in vitro; conditions: pig, LC50, WST-1 viability
[3] = test system: CYP 1A2
Description: (§1) Several CYP450 enzymatic activities were investigated in PICM-19H cells to determine the presence and inducible nature of major CYP450 isoforms. […] Cells were washed with PBS and appropriate inducer medium was added for 48 h prior to experimentation.
(§2) CYP450 activity was assessed in T25 cultures of PICM-19H cells that were grown for 3 wk post-passage. T25 cultures of APH or HepG2 C3A cells were tested after 3 d of primary culture and at 1 wk post-passage or near confluency, respectively. […] After the initial induction, cells were washed and given a non-fluorescent substrate for CYP1A1, CYP1A2, CYP2, or CYP3A (7-ERF, 7-MRF, MFC, and BFC, respectively). […] Medium samples were collected, centrifuged to remove cell debris (14,000×g, 2 min) and frozen at −80° C. until analyzed. […] Briefly, samples were incubated at 37° C. with or without β-glucuronidase/arylsulphatase (15 Fishman/120 Roy units/ml, Roche Applied Sciences) in pH 4.5 acetate buffer for 2 h to release any fluorescent reaction product that had been conjugated via sulfation or glucurondation phase II conjugation reactions. Standard curves contained resorufin or 7-HFC were treated identically to the experimental medium samples. Fluorescence was determined in an HTS 7000 plate reader; excitation/emission filter pairs were 530/590 and 410/510 for resorufin and 7-HFC, respectively. To determine relative conjugation activity, fluorescence was also determined directly without incubating first in β-glucuronidase/arylsulphatase. Since conjugated forms of resorufin and 7-HFC are non-fluorescent, the difference between the direct and indirect fluorescence measurements represents the amount of product which had been modified by conjugating enzymes.

[4] = test system: CYP2
Description: as §1, §2

[5] = test system: CYP1A1; conditions: pig
Description: as §1, §2

[6] = test system: CYP3A

CC(=O)Nc1ccc(O)cc1 [acetaminophen]
toxicity in glutathione-depleted cells [1]: enhanced | CC50 ([1]; pig): ~13 mM | CC50 [2]: 12.6 ± 0.75 mM

Cc1ccc2cc3c(ccc4ccccc43)c3c2c1CC3 [3-MC, 3-methylcholanthrene]
induction of MROD activity ([3]; PICM-19H cells, 48 h with 5 μM 3-MC, vs non-induced): 5.5 fold | MFCD activity induction (in words) ([4]; PICM-19H cells, 48 h with 1 mM PHB, 50 μM Rif or 5 μM 3-MC): equally induced | increase in EROD activity [5]: 198 fold | induction of BFCD activity ([6]; PICM-19H cells, 48 h with 5 μM 3-MC): 5.8 fold

CCC1(c2ccccc2)C(=O)NC(=O)NC1=O [PHB, phenobarbital]
MROD activity (in words) [3]: low | MFCD activity induction (in words) [4]: equally induced | increase in EROD activity [5]: 7 fold | increase in BFCD activity compared to non-induced controls ([6]; pig): approximately 50%

Source: patent publication US20090291064A1 (priority 2008, published 2009)
